Values of other authors, collected in patent publication US20190275032A1 (Boehringer Ingelheim International GmbH, priority 2016, published 2019).

How the values were obtained:
PDGFR-α and-β = settings: normal human lung fibroblasts in vitro
patients with IPF [1] = settings: both INPULSIS trials, nintedanib 150 mg twice daily versus placebo
patients with IPF [2] = test system: patients with IPF

exposure in patients with hepatic impairment (Child Pugh A, Child Pugh B)	elimination via biliary/faecal excretion (in vivo) [%]	SMILES	PDGF- or FGF-2-stimulated migration of lung fibroblasts (human lung fibroblasts; fibroblasts from patients with IPF)	TGF-β-induced fibroblast to myofibroblast transformation (human lung fibroblasts; primary human lung fibroblasts from IPF patients)	PDGFR-α and -β activation (PDGFR-α and-β)	reduction of the annual rate of decline in FVC (mL/year) (patients with IPF [1])	total lung collagen (mouse models of IPF; IPF mouse models)	lymphocyte and neutrophil counts in the bronchoalveolar lavage fluid (mouse models of IPF; two different mouse models of IPF)	primary endpoint of change from baseline FVC % predicted (patients with IPF [2]; ASCEND Phase III trial)	primary FVC lung function endpoint (patients with IPF [2]; international Phase III CAPACITY program)	decline of vital capacity (patients with IPF [2]; two local trials in Japan)
Exposure increased	> 90	COC(=O)c1ccc2c(c1)NC(=O)/C2=C(\Nc1ccc(N(C)C(=O)CN2CCN(C)CC2)cc1)c1ccccc1 [Nintedanib, 3-Z-[1-(4-(N-((4-methyl-piperazin-1-yl)-methylcarbonyl)-N-methyl-amino)-anilino)-1-phenyl-methylene]-6-methoxycarbonyl-2-indolinone]	attenuated	inhibited	inhibit	approximately 50%	significant reductions	significant reductions	–	–	–
–	–	Cc1ccc(=O)n(-c2ccccc2)c1 [Pirfenidone, 5-methyl-1-phenyl-2(1H)-Pyridinone]	–	–	–	–	–	–	met the primary endpoint	demonstrated efficacy on the primary FVC lung function endpoint in only one of two confirmatory trials	reduced decline
